Target: potassium channels (Sus scrofa, UniProt F1SR11)
Assay: Functional potassium channel opening activity in isolated Landrace pig bladder strips (field-stimulated twitch)
Details: for Landrace Pig Bladder Index: ED50 for P1075 divided by ED50 for the test agonist, averaged over tissues; for Landrace Pig Bladder pD2: negative logarithm of ED50; for Emax: pig, maximal efficacy relative to P1075, field stimulation 0.05Hz, 0.5 milli-seconds at 20 volts
Method: The entire bladder was removed and ed into Krebs Ringer bicarbonate solution (composition, mM: NaCl,; dextrose, 1; KCl, 4.7; […] Propranolol (0.004 ed in all of the assays to block […]. The trigonal and dome […]. Strips 3-5 mm wide and 20 mm long were prepared from the cut in a circular fashion. The mucosal layer was removed. One end ationary glass rod and the other to a Grass FT03 transducer at a basal am. Two parallel platinum electrodes were included in the stationary ide field stimulation of 0.05Hz, 0.5 milli-seconds at 20 volts. […] Tissues were allowed to equilibrate for at least 60 minutes and primed with 80 mM KCl. A control concentration response curve (cumulative) was generated for each tissue using the potassium channel opener […] as the control agonist. […] After a 60 minute rinsing period, a concentration response curve (cumulative) was generated for the test agonist in the same fashion as that used for the control agonist […]. The maximal efficacy of each compound (expressed as % relative to […]) is reported. […] J. Physiol. 235, E97 (1980)), and agonist potencies were expressed as pD2 (the negative logarithm). Agonist potencies were also expressed as an index relative to […]. The index was calculated by dividing the ED50 for […] by the ED50 for the test agonist in a given tissue. Each tissue was used for only one test agonist, and the indices obtained from each tissue were averaged to provide an average index of potency.

Structure (SMILES)	Landrace Pig Bladder Index	Landrace Pig Bladder pD2	Emax
N#Cc1cccc(C2C3=C(CCCC3=O)NC3=C2S(=O)(=O)CC3)c1 (single isomer, unassigned; (-)) [Example 114, (−)-9-(3-cyanophenyl)-2,3,5,6,7,9-hexahydrothieno[3,2-b]quinolin-8(4H)-one, 1,1-dioxide]	0.014	4.9	97%
O=C1CCCC2=C1C(c1ccc(F)c(C(F)(F)F)c1)C1=C(CCS1(=O)=O)N2 (single isomer, unassigned; (-)) [Example 139]	0.13	6.0	100%
O=C1CCCC2=C1C(c1ccc(Cl)c(C(F)(F)F)c1)C1=C(CCS1(=O)=O)N2 (single isomer, unassigned; (-)) [Example 172, (−)-9-[4-chloro-3-(trifluoromethyl)vhenyl]-2,3,5,6,79-hexahydrothieno[3,2-b]quinolin-8(4H)-one, 1,1-dioxide]	0.12	6.2	100%
O=C1CCCC2=C1C(c1cccc([N+](=O)[O-])c1)C1=C(CCCS1(=O)=O)N2 (stereo not drawn) [Example 1, 3,4,6,7,8,10-hexahydro-10-(3-nitrophenyl)-2H-thiopyrano[3,2-b]quinolin-9(5H)-one, 1,1-dioxide]	0.022	5.5	100%
O=C1CCCC2=C1C(c1ccc(Cl)c(Cl)c1)C1=C(CCCS1(=O)=O)N2 (stereo not drawn) [Example 2]	0.15	6.2	96%
O=C1CCCC2=C1C(c1ccc(F)c(Cl)c1)C1=C(CCCS1(=O)=O)N2 (stereo not drawn) [Example 3, 10-(3-chloro-4-fluorophenyl)-3,4,6,7,8,10-hexahydro-2H-thiopyrano [3,2-b]quinolin-9(5H)-one, 1,1-dioxide]	0.11	6.0	85%
O=C1CCCC2=C1C(c1ccc(F)c(Br)c1)C1=C(CCCS1(=O)=O)N2 (stereo not drawn) [Example 4, 10-(3-bromo-4-fluorophenyl)-3,4,6,7,8,10-hexahydro-2H-thiopyrano [3,2-b]quinolin-9(5H)-one, 1,1-dioxide]	0.18	6.2	93%
N#Cc1cccc(C2C3=C(CCCC3=O)NC3=C2S(=O)(=O)CCC3)c1 (stereo not drawn) [Example 5, 10-(3-cyanophenyl)-3,4,6,7,8,10-hexahydro-2H-thiopyrano [3,2-b]quinolin-9(5H)-one, 1,1-dioxide]	0.0076	4.8	96%
O=C1CCCC2=C1C(c1cccc(Cl)c1)C1=C(CCCS1(=O)=O)N2 (stereo not drawn) [Example 16, 10-(3-chlorophenyl)-3,4,6,7,8,10-hexahydro-2H-thiopyrano [3.2-b]quinolin-9(5H)-one, 1,1-dioxide]	0.011	5.0	100%
CC1=C(S(C)(=O)=O)C(c2cc(F)c(F)c(F)c2)C2=C(CCCC2=O)N1 (stereo not drawn) [Example 22, 4-(3,4,5-trifluorophenyl)-4,6,7,8-tetrahydro-2-methyl-3-(methylsulfonyl)-5(1H)-quinolinone]	0.0069	4.5	77%
CC1=C(S(C)(=O)=O)C(c2ccc(C)c([N+](=O)[O-])c2)C2=C(CCCC2=O)N1 (stereo not drawn) [Example 23, 4,6,7,8-tetrahydro-2-methyl-4-(4-methyl-3-nitrophenyl)-3-(methylsulfonyl)-5(1H)-quinolinone]	0.0053	4.4	81%
CC1=C(S(C)(=O)=O)C(c2ccc(F)c(Br)c2)C2=C(CCCC2=O)N1 (stereo not drawn) [Example 25, 4-(3-bromo-4-fluorophenyl)-4,6,7,8-tetrahydro-2-methyl-3-(methylsulfonyl)-5(1H)-guinolinone]	0.038	5.4	88%
CC1=C(S(C)(=O)=O)C(c2cccc([N+](=O)[O-])c2)C2=C(CCCC2=O)N1 (stereo not drawn) [Example 26, 4,6,7,8-tetrahydro-2-methyl-3-(methylsulfonyl)-4-(3-nitrophenyl)-5(1H)-quinolinone]	0.0099	4.5	78%
N#Cc1cccc(C2C3=C(CCCC3=O)NC3=C2S(=O)(=O)CC3)c1 (stereo not drawn) [Example 30, 9-(3-cyanophenyl)-2,3,5,6,7,9-hexahydrothieno [3.2-b]quinolin-8(4H)-one, 1,1-dioxide]	0.018	5.5	99%
O=C1CCCC2=C1C(c1ccc(Cl)c([N+](=O)[O-])c1)C1=C(CCS1(=O)=O)N2 (stereo not drawn) [Example 34, 9-(4-chloro-3-nitrophenyl)-2,3,5,6,7,9-hexahydrothieno [3,2-b]quinolin-8(4H)-one, 1,1-dioxide]	0.32	6.8	100%
CC(=O)C1=C(C)NC2=C(C1c1ccc(Cl)c([N+](=O)[O-])c1)S(=O)(=O)CCC2 (stereo not drawn) [Example 36]	0.040	5.5	97%
O=C1CCC2=C1C(c1ccc(Cl)c([N+](=O)[O-])c1)C1=C(CCCS1(=O)=O)N2 (stereo not drawn) [Example 38, 9-(4-chloro-3-nitrophenyl)-3,4,5,6,7,9-hexahydrocyclopenta[b]thiopyrano [2.3-e]pyridin-8(2H)-one, 1,1-dioxide]	0.14	6.2	98%
O=C1CCC2=C1C(c1ccc(F)c(Br)c1)C1=C(CCCS1(=O)=O)N2 (stereo not drawn) [Example 40, 9-(3-bromo-4-fluorophenyl)-3,4,5,6,7,9-hexahydrocyclopenta[b]thiopyrano [2.3-e]pyridin-8(2H)-one, 1,1-dioxide]	0.46	6.9	98%
O=C1CCCC2=C1C(c1ccc(F)c(Br)c1)C1=C(CCS1(=O)=O)N2 (stereo not drawn) [Example 43, 9-(3-bromo-4-fluoronhenyl)-2,3,5,6,7,9-hexahydrothieno [3,2-b]quinolin-8(4H)-one, 1,1-dioxide]	0.41	6.6	98%
O=C1CCC2=C1C(c1ccc(Cl)c([N+](=O)[O-])c1)C1=C(CCS1(=O)=O)N2 (stereo not drawn) [Example 44, 8-(4-chloro-3-nitrophenyl)-2,3,4,5,6,8-hexahydro-7H-cyclopenta[b]thieno[2,3-e]pyridin-7-one 1,1-dioxide]	0.15	6.2	99%
O=[N+]([O-])c1cc(C2C3=C(CCS3(=O)=O)NC3=C2S(=O)(=O)CC3)ccc1Cl [Example 51, 8-(4-chloro-3-nitrophenyl)-2,3,4,5,6,8-hexahydrodithieno [3,2-b:2′,3′-e]pyridine, 1,1 7,7-tetraoxide]	0.021	5.4	99%
O=S1(=O)CCC2=C1C(c1ccc(F)c(Br)c1)C1=C(CCS1(=O)=O)N2 [Example 53, 8-(3-bromo-4-fluorophenyl)-2,3,4,5,6,8-hexahydrodithieno [3.2-b:2′,3′-e]pyridine, 1,1,7,7-tetraoxide]	0.17	6.6	100%
O=C1CCC2=C1C(c1cccc([N+](=O)[O-])c1)C1=C(CCS1(=O)=O)N2 (stereo not drawn) [Example 58, 2,3,4,5,6,8-hexahydro-8-(3-nitrophenyl)-7H-cyclopenta[b]thieno [2.3-e]pyridin-7-one, 1,1-dioxide]	0.026	5.3	94%
O=C1CCC2=C1C(c1ccc(F)c(Cl)c1)C1=C(CCS1(=O)=O)N2 (stereo not drawn) [Example 61, 8-(3-chloro-4-fluorophenyl)-2,3,4,5,6,8-hexahydro-7H-cyclopenta[b]thieno [2,3-e]pyridin-7-one, 1,1-dioxide]	0.71	7.1	100%
O=C1CCC2=C1C(c1csc([N+](=O)[O-])c1)C1=C(CCS1(=O)=O)N2 (stereo not drawn) [Example 69]	0.15	6.2	98%
